Assay results taken from ChEMBL document CHEMBL1201862, “PubChem BioAssay data set” (2004).
The source made the active and inactive calls.

Columns and labels:
[1] = target: Dual specificity tyrosine-phosphorylation-regulated kinase 1A (Rattus norvegicus, UniProt Q63470); assay type: biochemical, Homo sapiens
[2] = CEM21 lymphoblast cell cytotoxicity, dose response, cytotoxicity control for viral fusion inhibitor project, CellTiter-Glo luminescence, cherry-picked (AID 652042); assay type: functional, cell-based;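 also: potency for signal decrease meaning cytotoxicity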
[3] = inhibitors of HIV Env-driven cell fusion, dose response, cherry-pick (AID 652057); assay type: functional, cell-based
[4] = ZM109 Env clade C HIV-1 fusion inhibitors, dose response, HeLa effector, CEM target cells, luciferase, cherry-pick (AID 652058); assay type: functional, cell-based
[5] = inhibitors of clade B AD8 Env fusion, dose response, cell-based, cherry-pick (AID 652062); assay type: functional;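 also: luciferase signal from cell-cell fusion driven by HIV-1 clade B AD8 Env; potency is for inhibitors of fusion seen as a drop in luminescence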
[6] = microbe, parasite or virus in culture; assay type: functional; settings: Mycobacterium tuberculosis
[7] = growth suppression of beta-catenin-knockout colon cells, dose response, cell-based, HCT116, human colon tumor (AID 1045); assay type: functional;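 also: HCT116 colon tumor cells with beta catenin knocked out; cells exposed to compound for 60 hours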
[8] = growth suppression of PTEN-null colon cells, dose response, cell-based, HCT116 PTEN knockout (AID 1047); assay type: functional;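 also: HCT116 colon tumor cells with PTEN knocked out; cells exposed to compound for 60 hours before readout; potency for loss of cell viability measured by luminescence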
[9] = target: Heat shock protein HSP 90-alpha (Homo sapiens, UniProt P07900); assay type: functional, organism-based
Fatty acid synthase [10] = target: T1, Fatty acid synthase (Homo sapiens, UniProt P49327); assay: FAS thioesterase domain inhibitors, dose response, biochemical, kinetic fluorescence intensity (AID 624326); assay type: functional;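 also: rate of fluorescence rise from hydrolysis of a fluorogenic O-methyl fluorescein ester substrate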
T1 sequence (P49327 whole entry, the tested form may be a part): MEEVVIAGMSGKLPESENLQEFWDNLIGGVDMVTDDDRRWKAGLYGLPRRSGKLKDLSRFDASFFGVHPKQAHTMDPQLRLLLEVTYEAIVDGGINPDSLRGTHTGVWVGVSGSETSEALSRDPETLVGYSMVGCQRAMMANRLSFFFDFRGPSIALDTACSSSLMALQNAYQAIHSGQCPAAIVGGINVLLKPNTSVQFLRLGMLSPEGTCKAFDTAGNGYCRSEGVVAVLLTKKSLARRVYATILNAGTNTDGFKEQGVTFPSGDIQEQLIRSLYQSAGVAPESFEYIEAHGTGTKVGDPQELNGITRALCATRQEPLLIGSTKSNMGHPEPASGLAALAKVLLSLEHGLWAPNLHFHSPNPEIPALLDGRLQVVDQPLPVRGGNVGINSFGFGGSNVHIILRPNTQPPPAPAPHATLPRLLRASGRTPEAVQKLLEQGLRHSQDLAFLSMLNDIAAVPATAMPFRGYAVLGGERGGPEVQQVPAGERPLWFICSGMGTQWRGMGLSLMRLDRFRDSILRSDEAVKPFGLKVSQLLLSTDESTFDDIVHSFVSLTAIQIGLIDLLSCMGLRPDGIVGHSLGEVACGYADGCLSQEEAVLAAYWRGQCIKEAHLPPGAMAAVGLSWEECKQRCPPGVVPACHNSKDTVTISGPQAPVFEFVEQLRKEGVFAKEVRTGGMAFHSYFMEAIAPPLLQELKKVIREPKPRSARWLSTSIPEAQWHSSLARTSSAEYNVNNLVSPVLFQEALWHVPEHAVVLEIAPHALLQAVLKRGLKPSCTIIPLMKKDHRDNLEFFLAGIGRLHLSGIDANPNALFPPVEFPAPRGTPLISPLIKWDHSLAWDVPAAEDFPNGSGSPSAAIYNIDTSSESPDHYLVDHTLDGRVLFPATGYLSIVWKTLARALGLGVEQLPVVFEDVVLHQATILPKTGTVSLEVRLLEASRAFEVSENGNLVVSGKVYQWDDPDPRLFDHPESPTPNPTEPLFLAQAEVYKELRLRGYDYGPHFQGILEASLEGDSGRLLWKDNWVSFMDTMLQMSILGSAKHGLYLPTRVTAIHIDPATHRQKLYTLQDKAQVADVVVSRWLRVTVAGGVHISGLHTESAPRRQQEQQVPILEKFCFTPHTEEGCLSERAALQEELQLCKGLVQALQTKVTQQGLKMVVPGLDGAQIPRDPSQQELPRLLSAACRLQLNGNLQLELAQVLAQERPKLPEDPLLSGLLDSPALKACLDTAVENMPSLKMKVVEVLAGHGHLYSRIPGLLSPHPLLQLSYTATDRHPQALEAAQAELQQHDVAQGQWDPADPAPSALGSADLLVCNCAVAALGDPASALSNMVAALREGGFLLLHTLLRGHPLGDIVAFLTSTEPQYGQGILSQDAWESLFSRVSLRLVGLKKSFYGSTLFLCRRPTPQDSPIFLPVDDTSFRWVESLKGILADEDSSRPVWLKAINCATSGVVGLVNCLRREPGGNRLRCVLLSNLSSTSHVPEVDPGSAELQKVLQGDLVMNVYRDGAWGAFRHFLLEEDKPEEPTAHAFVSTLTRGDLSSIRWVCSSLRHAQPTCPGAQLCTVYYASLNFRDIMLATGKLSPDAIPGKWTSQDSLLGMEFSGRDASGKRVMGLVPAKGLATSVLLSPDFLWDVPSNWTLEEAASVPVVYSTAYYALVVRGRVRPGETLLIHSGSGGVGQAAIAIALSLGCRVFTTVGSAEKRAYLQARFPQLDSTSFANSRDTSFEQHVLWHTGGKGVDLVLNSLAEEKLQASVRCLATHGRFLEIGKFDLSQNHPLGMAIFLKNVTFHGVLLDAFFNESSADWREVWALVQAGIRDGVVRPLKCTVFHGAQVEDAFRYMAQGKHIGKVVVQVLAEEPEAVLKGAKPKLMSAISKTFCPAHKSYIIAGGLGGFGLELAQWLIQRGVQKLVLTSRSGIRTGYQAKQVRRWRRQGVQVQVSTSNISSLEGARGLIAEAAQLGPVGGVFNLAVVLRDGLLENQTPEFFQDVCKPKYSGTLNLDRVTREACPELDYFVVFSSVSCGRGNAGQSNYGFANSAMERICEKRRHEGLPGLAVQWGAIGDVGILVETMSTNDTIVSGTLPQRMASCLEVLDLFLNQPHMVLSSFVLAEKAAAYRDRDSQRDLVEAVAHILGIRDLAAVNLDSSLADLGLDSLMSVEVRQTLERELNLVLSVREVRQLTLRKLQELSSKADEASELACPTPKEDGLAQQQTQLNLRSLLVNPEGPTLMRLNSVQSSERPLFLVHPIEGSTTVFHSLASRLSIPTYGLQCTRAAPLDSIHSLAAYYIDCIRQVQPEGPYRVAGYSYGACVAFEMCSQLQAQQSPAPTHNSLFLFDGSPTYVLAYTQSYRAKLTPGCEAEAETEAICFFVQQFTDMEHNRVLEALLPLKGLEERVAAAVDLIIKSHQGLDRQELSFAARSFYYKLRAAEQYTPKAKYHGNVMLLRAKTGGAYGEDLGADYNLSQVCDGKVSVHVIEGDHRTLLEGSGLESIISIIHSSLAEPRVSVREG

[11] = target: T2, Histone-lysine N-methyltransferase NSD2 (Homo sapiens, UniProt O96028); assay type: biochemical
T2 sequence (O96028 whole entry): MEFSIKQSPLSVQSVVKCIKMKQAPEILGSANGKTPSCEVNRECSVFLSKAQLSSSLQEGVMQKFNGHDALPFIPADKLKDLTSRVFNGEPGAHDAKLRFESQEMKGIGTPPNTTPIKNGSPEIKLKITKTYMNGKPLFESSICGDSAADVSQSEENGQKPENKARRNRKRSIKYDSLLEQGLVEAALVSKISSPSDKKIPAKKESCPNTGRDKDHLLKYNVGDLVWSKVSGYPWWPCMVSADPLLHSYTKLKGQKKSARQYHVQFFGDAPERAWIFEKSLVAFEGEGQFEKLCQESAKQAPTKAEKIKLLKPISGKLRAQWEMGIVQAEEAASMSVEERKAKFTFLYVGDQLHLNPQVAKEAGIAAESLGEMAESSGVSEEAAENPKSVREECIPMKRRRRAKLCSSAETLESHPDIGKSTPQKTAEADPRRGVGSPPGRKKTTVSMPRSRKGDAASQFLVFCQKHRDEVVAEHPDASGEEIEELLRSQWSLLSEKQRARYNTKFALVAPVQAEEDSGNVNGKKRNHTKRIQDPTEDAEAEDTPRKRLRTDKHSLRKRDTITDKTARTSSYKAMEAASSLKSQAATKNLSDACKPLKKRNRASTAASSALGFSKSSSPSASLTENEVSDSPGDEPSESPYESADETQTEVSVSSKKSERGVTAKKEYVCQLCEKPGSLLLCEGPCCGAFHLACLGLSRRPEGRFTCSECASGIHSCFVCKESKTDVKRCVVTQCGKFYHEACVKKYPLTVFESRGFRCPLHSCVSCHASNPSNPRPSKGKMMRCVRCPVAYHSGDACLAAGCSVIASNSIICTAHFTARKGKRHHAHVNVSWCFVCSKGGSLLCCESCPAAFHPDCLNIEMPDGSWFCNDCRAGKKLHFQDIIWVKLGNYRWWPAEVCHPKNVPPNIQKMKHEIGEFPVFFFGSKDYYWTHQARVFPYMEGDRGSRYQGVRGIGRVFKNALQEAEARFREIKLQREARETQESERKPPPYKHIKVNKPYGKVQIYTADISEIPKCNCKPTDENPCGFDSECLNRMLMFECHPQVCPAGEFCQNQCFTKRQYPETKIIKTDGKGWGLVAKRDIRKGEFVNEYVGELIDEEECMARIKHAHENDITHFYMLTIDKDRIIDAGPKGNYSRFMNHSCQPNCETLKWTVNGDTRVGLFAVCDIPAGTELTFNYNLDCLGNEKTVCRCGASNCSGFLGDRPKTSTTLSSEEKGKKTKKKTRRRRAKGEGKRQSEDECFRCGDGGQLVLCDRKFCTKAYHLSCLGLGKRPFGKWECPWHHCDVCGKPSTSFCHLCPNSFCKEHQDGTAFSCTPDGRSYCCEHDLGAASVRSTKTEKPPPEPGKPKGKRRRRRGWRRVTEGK

[12] = target: T3, Calpain-2 catalytic subunit (Sus scrofa, UniProt P43367); assay: pig calpain II inhibitor potency, dose response, biochemical, fluorogenic peptide substrate (AID 1420); assay type: functional
T3 sequence (P43367 whole entry): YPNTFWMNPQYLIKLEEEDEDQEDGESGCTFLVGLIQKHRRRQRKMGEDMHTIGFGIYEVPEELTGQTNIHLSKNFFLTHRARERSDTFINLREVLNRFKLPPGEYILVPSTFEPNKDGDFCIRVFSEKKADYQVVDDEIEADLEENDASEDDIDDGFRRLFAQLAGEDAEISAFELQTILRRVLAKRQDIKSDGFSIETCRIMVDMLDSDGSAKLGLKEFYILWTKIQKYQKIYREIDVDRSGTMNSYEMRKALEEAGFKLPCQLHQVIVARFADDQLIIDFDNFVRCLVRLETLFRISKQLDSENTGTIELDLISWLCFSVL

Fatty acid synthase [13] = target: T1, Fatty acid synthase; assay: FAS thioesterase domain inhibitors, dose response, biochemical, endpoint fluorescence intensity, uHTS hits (AID 624327); assay type: functional;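 also: fluorescence from hydrolysis of an O-methyl fluorescein acyl ester substrate by the enzyme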
[14] = target: T4, Sentrin-specific protease 7 (Homo sapiens, UniProt Q9BQF6); assay type: functional;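 also: Luminescence-based dose-response confirmation of ultra-high-throughput screening hits, measuring inhibition of SENP7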
T4 sequence (Q9BQF6 whole entry): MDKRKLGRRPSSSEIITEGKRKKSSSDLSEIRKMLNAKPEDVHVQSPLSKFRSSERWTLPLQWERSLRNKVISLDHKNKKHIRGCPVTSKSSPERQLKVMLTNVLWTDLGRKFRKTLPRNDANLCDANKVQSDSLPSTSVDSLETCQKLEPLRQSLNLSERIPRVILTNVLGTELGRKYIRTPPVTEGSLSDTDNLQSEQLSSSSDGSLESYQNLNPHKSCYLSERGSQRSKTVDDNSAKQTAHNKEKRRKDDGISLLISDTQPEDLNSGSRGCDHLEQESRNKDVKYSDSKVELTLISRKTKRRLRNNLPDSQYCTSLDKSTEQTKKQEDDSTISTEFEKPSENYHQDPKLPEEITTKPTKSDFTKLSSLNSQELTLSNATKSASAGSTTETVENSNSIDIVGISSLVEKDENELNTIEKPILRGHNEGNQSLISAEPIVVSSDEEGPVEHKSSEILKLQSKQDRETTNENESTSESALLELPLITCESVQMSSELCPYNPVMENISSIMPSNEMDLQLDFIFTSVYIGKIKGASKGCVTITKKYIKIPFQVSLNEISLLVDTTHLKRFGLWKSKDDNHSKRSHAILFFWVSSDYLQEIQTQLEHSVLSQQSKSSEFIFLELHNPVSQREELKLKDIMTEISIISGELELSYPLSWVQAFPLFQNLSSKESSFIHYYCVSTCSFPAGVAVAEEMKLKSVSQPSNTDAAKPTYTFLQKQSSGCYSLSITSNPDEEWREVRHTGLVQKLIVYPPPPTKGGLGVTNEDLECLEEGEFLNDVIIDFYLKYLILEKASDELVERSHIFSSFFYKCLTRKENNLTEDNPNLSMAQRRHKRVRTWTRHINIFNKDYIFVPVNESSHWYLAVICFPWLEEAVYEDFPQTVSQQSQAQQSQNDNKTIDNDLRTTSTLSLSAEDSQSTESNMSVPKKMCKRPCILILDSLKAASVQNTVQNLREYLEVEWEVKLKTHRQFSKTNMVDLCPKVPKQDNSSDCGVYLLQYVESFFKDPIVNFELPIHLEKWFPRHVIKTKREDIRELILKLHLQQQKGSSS

[15] = target: T5, Sentrin-specific protease 6 (Homo sapiens, UniProt Q9GZR1); assay type: functional;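 also: Luminescence-based dose-response confirmatory assay of SENP6 inhibition, following up an ultra-high-throughput screen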
T5 sequence (Q9GZR1 whole entry): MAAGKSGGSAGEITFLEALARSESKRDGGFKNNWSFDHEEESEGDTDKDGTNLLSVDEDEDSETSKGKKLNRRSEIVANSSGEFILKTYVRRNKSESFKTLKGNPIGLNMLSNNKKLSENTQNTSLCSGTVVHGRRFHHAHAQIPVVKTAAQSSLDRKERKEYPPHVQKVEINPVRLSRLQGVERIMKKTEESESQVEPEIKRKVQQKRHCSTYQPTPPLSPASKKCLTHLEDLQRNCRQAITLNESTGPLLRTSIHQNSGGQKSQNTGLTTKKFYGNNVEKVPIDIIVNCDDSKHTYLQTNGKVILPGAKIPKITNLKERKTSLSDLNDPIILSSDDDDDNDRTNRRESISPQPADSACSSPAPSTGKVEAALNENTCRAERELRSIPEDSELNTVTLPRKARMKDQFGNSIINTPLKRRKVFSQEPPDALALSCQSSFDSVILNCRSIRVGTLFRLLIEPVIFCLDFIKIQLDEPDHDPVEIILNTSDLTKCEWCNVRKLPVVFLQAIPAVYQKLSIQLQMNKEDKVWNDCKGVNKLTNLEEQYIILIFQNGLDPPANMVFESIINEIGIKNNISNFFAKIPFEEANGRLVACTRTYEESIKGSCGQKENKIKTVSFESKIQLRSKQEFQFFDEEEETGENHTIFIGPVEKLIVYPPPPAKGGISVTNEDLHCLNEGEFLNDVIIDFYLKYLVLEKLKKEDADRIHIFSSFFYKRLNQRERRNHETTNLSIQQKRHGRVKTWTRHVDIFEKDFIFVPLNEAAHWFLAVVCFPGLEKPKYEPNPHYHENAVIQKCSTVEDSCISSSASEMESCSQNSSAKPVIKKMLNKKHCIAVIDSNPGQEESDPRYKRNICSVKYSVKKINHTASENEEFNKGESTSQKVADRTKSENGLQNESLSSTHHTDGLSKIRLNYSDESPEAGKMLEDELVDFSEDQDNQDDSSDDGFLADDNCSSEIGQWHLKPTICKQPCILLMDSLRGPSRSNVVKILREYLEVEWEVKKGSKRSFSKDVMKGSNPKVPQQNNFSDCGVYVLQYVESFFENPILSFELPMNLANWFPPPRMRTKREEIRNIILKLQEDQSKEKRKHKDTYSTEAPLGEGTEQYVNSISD

[16] = target: T6, Sentrin-specific protease 8 (Homo sapiens, UniProt Q96LD8); assay type: functional;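 also: luminescence read-out of SENP8 inhibition, dose-response confirmation following an ultra-high-throughput screen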
T6 sequence (Q96LD8 whole entry): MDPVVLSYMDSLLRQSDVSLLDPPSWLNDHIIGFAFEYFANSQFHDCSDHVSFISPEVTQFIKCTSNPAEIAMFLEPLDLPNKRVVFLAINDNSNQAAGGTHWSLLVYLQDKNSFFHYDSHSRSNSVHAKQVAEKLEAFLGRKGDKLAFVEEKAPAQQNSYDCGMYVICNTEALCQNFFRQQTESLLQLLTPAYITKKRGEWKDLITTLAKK

[17] = off-target signal loss in HeLa-CEM21 co-culture – HeLa F-luc CTL cells, cherry-picked, counter-screen for HIV-1 Env fusion inhibitor project, dose response (AID 652040); assay type: functional, cell-based;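 also: potency for signal decrease marking cytotoxic or nonspecific inhibition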
HEK293 [18] = assay: cells; assay type: functional, cell-based; settings: Homo sapiens
HEK293 [19] = assay: NOD2 signaling inhibitors in MDP-stimulated cells, cell-based, uHTS, luminescence (AID 2001); assay type: functional; settings: Homo sapiens
HEK293 [20] = assay: NOD1 signaling inhibitors, primary screen, cell-based, luminescence, uHTS (AID 1578); assay type: functional; settings: Homo sapiens
HEK293 [21] = assay: cells; assay type: functional, cell-based; settings: Homo sapiens; remark: listed apart in the source
[22] = miR-122 activators in hepatoma reporter cells, dose response, cell-based, Huh7 psiCHECK-miR122, Renilla luciferase, cherry-picked (AID 651956); assay type: functional;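 also: huh7 hepatoma cells stably carrying a psiCHECK-2 miR-122 sensor plasmid; renilla luciferase signal reporting endogenous miR-122 activity after 48 h compound exposure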
Paired box protein Pax-8 = Paired box protein Pax-8 (Homo sapiens, UniProt Q06710); assay: inhibitors of PAX8-driven TPO luciferase reporter, dose response, RMG-I cells, cherry-pick (AID 687027); assay type: functional, cell-based;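 also: luciferase reporter driven by Pax8 target thyroperoxidase promoter measured by SteadyGlo luminescence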
Chain of Paired box protein Pax-8 (Q06710 whole entry): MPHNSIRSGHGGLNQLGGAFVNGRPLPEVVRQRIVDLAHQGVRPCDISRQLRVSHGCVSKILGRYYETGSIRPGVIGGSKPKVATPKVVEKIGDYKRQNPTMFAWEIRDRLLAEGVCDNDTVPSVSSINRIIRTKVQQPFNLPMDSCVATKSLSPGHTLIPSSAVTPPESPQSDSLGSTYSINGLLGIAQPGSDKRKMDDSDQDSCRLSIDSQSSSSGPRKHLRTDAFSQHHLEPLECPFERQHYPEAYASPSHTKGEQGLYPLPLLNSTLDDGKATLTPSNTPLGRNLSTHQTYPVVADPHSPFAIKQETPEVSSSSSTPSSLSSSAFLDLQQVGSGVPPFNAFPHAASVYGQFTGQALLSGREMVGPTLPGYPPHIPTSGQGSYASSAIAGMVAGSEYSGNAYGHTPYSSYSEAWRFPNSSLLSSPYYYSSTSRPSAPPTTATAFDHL

Oc1ccnc2ccc(Cl)cc12
AC50 [1]: 13.6 µM (active)

CCC(=O)Nc1ccc2c(c1)OC[C@H](C)N(CC1CCCCC1)C[C@H](C)[C@@H](OC)CN(C)C2=O
AC50 [2]: 55.6 µM (active)
AC50 [3]: 2.93 µM (active)
AC50 [4]: 2.21 µM (active)
AC50 [5]: 4.48 µM (active)

CCCCCn1c(CN2CCN(c3cccc(Cl)c3)CC2)nc2c1c(=O)[nH]c(=O)n2C
CC50 [6]: > 40 µM (active)

Cc1oc(-c2cccc(Cl)c2)nc1CN1CCC(C(=O)N2CCN(c3ccccc3F)CC2)CC1
EC50 [7]: 14.5 µM (active)
CC50 [6]: 28.9 µM (active)
EC50 [8]: 15.5 µM (active)

O=C1NC(=S)S/C1=C\c1cc2ccccc2nc1N1CCCCC1
AC50 [9]: 3.98 µM (active)
IC50 (Fatty acid synthase [10]): 11.2 µM (active)
AC50 [11]: 11.1 µM (active)
IC50 [12]: 1.63 µM (not active)
IC50 (Fatty acid synthase [13]): 46 µM (inactive)

Cc1cc(C(=O)CCl)c(C)n1-c1cccc([N+](=O)[O-])c1
CC50 [6]: 13.5 µM (active)

CC(C)(C)c1ccc(C(=O)NCCOc2ccccc2)cc1
IC50 [14]: 5.62 µM (active)
IC50 [15]: > 100 µM (inactive)
IC50 [16]: > 100 µM (inactive)

C[C@H](CO)N1C[C@H](C)[C@H](CN(C)C(=O)N[C@H](C)c2ccccc2)OCc2ccccc2-c2c(n(C)c3ccccc23)C1=O
AC50 [2]: 64.6 µM (active)
AC50 [3]: 0.975 µM (active)
AC50 [4]: 1.62 µM (active)
AC50 [5]: 1.07 µM (active)
AC50 [17]: 1.53 µM (active)

CCOc1ccc(C(=O)/C=C/c2cc(OC)c(OC)c(OC)c2)cc1
IC50 (HEK293 [18]): 14.7 µM (active)
IC50 (HEK293 [19]): 5.02 µM (active)
EC50 (HEK293 [20]): 11.5 µM (active)
IC50 (HEK293 [21]): 5.97 µM (active)

Cc1c(NS(=O)(=O)c2ccc3c(c2)OCCO3)cccc1-c1nc2cccnc2s1
IC50 (HEK293 [18]): 10.9 µM (active)
IC50 (HEK293 [19]): 4.02 µM (active)
EC50 (HEK293 [20]): 4.14 µM (active)
IC50 (HEK293 [21]): 5.27 µM (active)

C[C@@H]1CN([C@@H](C)CO)C(=O)Cc2cc(NS(=O)(=O)c3ccc(F)cc3)ccc2O[C@H]1CN(C)Cc1ccc(Oc2ccccc2)cc1
AC50 [22]: 1.96 µM (active)
AC50 (Paired box protein Pax-8): 5.32 µM (active)
